# According to publication PMC5065007 (Journal of the American Chemical Society, 2016):
# Where no end group is shown, it is not given here.
# Biological target: δPKC (Homo sapiens, UniProt Q05655)
# Test: AGILE label-free binding assay, δPKC to immobilized peptide
# δPKC, sequence (Q05655 whole entry): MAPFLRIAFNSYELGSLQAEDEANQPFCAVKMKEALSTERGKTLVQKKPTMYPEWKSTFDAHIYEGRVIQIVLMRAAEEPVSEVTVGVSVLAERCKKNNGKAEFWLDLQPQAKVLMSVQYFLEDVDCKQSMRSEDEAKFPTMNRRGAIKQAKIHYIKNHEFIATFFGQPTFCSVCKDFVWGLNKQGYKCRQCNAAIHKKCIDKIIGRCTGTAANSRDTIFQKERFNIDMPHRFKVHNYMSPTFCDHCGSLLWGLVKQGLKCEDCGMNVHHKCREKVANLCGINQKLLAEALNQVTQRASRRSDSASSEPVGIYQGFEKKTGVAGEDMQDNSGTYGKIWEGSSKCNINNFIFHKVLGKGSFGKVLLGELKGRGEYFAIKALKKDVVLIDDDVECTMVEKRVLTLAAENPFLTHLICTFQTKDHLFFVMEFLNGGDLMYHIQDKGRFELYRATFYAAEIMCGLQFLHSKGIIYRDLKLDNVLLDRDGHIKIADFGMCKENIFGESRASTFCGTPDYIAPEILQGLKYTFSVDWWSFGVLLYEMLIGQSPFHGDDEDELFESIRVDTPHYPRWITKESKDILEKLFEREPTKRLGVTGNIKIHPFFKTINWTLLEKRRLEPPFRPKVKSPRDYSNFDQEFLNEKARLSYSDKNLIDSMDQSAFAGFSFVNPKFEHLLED
Substance,IC50,Kd
ALSAER [ψPDK analog],1250 nM,1250 nM
ALSTER [ψPDK],53 nM,53 ± 19 nM
